One data set has as its target T1, CYP2B6 (Homo sapiens, UniProt P20813).
T1 construct: from tissue; host or cells: liver microsomes
T1 sequence (P20813 1-491): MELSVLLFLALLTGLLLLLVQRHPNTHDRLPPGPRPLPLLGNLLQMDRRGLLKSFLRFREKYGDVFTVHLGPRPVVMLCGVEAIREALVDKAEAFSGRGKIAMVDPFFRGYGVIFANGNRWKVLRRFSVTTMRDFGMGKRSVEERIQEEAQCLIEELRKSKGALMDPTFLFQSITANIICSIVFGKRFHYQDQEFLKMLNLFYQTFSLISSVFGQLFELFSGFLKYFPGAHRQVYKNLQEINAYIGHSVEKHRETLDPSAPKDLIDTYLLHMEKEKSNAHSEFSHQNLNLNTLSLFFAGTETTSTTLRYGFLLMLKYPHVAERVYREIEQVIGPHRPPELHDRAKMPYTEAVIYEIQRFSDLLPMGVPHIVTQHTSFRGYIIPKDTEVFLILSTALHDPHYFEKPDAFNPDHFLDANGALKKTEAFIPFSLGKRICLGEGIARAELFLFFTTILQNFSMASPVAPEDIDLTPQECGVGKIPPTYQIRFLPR
The data set can be described thus: P450 inhibition in liver microsomes with probe substrates. The format is in vitro ADME. On the technique in general: Liver microsomes are vesicles of endoplasmic reticulum, rich in cytochrome P450 enzymes.

A further data set is described as follows: clinical. The following applies: human, in vivo, po.
Another data set addresses T2, CYP2C9 (Homo sapiens, UniProt P11712).
T2 construct: from tissue; host or cells: liver microsomes
The data set can be described thus: P450 inhibition in liver microsomes with probe substrates. Format: in vitro ADME.

The next data set addresses T3, CYP2C19 (Homo sapiens, UniProt P33261).
T3 construct: from tissue; host or cells: liver microsomes
Described as above. Format: in vitro ADME.

The target of another data set is T4, CYP2D6 (Homo sapiens, UniProt P10635).
T4 construct: from tissue; host or cells: liver microsomes
Described as above. The format is in vitro ADME.

The subject of a further data set is ear skin malonyl-CoA. The data set can be described thus: Ear skin malonyl-CoA levels in Syrian hamsters. Format: in vivo, Syrian hamster. The following applies: topical 100 mg/ml (5 ul/ear), single dose, one hour after treatment. The protocol:
Male Syrian gold Hamster at ˜10 weeks were maintained adlibitum on standard hamster chow and water. Example 3 for topical delivery was prepared as a solution in a vehicle consisting of 70:30 (Ethanol:propylene glycol) at a concentration of 100 mg/ml. Topical administration of a single dose (5 ul/ear) was applied to hamster ears with a pipette (2-10 ul) tip adhering to 2 minute intervals following the dosing order. The dosing timing allowed for the formulation to spread evenly over an approximate 1 sq cm area and absorb/dry prior to returning the animal to the cage. […] One hour after dose administration animals were sacrificed by CO2 asphyxiation.
Briefly, ear skin samples were prepared for malonyl-CoA analysis in the following manner. One 8 mm distal biopsy punch (using a 8 mm diameter Sklar Tru-punch—Sklar Instruments) (2 per animal) was taken just above the anatomical “V” in the aural cartilage to normalize sample area. The punch was then split into 2 layers (anterior and posterior). […]
Frozen tissues were homogenized in 1 mL of 5% ice cold trichloroacetic acid using a polytron in a 2 mL polypropylene centrifuge tube. […] Tissue malonyl-CoA levels were determined by LCMS by the Metabolomics Laboratory Sanford-Burnham Medical Research Institute (Orlando, […]). Hamster ear skin malonyl-CoA levels were expressed as the percent of the vehicle control and are plotted in FIG. 6.

T4 sequence (P10635 whole entry): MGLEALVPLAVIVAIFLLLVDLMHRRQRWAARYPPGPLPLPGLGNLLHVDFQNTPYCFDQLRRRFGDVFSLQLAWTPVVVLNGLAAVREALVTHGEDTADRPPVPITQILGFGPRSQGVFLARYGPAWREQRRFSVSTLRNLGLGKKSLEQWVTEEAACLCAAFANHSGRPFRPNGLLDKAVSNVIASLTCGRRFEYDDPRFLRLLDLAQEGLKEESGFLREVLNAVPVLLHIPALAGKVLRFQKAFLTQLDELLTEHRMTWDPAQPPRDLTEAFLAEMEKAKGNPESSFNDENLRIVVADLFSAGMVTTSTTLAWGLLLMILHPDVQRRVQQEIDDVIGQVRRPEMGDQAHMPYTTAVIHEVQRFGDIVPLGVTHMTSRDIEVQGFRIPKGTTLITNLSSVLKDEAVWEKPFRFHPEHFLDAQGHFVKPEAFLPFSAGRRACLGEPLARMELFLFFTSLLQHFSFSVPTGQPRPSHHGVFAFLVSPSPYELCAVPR
T2 sequence (P11712 whole entry): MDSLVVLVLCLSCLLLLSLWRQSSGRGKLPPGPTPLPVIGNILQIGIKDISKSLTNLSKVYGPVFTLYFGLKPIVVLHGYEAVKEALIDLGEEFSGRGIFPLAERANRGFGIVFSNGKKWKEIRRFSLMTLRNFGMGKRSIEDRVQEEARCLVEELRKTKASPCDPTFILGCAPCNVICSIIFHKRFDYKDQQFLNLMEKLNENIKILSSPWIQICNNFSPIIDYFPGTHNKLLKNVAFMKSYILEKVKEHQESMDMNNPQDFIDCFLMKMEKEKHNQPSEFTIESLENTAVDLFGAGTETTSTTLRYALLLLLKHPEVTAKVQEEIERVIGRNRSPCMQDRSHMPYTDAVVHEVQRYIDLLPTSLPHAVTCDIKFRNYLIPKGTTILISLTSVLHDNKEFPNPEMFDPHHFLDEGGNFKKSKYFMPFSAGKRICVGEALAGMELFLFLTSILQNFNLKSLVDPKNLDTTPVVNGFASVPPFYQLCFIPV
T3 sequence (P33261 whole entry): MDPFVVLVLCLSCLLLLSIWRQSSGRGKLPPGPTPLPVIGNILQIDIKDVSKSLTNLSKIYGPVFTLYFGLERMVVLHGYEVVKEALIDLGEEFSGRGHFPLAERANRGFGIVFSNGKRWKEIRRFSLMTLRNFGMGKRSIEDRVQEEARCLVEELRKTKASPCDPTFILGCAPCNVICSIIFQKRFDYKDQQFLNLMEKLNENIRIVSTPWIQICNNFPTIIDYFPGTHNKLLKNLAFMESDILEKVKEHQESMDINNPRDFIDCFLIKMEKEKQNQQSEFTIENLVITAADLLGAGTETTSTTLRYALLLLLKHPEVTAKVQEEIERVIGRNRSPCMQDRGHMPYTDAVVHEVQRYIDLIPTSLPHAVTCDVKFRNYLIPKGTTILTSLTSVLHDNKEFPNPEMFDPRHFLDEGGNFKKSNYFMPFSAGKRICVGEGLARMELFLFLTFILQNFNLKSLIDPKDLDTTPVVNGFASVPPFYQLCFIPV

In the case of `Cc1nc2ccc(C(=O)N3CCC4(CC3)CC(=O)c3c(cnn3C(C)C)C4)cc2[nH]1` [Example 1, 1-isopropyl-1′-(2-methyl-1H-benzo[d]imidazole-5-carbonyl)-4,6-dihydrospiro[indazole-5,4′-piperidin]-7(1H)-one], the IC50 against CYP2B6, against CYP2C9, against CYP2C19 and against CYP2D6 was above 30 µM in each case. Besides, the half-life (as a rule, the time needed for the level to fall by half in the phase considered) in “clinical” lay within 10 to 13 h.

As for `CC(C)n1ncc2c1C(=O)CC1(CCN(C(=O)c3ccc4ccc(N)nc4c3)CC1)C2` [Example 3, 1′-(2-aminoquinoline-7-carbonyl)-1-isopropyl-4,6-dihydrospiro[indazole-5,4′-piperidin]-7(1H)-one], in the data set on ear skin malonyl-CoA, the “suppression of hamster ear skin malonyl-CoA relative to vehicle” value is listed as 87%.

Source of the values: patent US20160220557A1, “USE OF ACETYL-COA CARBOXYLASE INHIBITORS FOR TREATING ACNE VULGARIS” (PFIZER INC., priority 2013, published 2016).
